Test results published in patent US20210284647A1, “N-(3-(IMIDAZO[1,2-B]PYRIDAZIN-3-YLETHYNYL)-4-METHYLPHENYL)-5-PHENYL-4,5-DIHYDRO-1H-PYRAZOLE-1-CARBOXAMIDE DERIVATIVE, AND PHARMACEUTICAL COMPOSITION CONTAINING SAME AS ACTIVE INGREDIENT FOR TREATING KINASE-RELATED DISEASES” (VORONOIBIO INC., priority 2018, published 2021).

Columns and labels:
human GST-RIPK1 = molecular target: T1, human GST-RIPK1 (Homo sapiens, UniProt Q13546); experiment: RIPK1 inhibitory activity (ADP-Glo kinase assay); type: biochemical; details: human GST-RIPK1 10 ng, ATP 50 uM, 25° C. for 4 hours, read-out: Enzyme IC50
T1 construct: GST; purchased signalchem
T1 sequence (Q13546 1-375 limits assumed): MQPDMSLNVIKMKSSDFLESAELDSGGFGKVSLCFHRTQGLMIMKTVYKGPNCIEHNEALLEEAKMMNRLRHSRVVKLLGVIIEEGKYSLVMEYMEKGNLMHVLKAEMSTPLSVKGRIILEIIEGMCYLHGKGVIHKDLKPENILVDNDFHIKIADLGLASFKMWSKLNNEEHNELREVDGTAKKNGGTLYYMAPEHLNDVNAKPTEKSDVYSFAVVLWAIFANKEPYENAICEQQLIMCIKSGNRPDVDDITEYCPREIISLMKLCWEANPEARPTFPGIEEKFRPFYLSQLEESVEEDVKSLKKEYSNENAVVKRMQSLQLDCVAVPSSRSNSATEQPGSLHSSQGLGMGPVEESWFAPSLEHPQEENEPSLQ
Description: The following experiment was performed to evaluate the inhibitory activity of the example compounds according to the present invention against RIPK1 (receptor-interacting serine/threonine protein kinase 1).
The example compound was reacted with the purified human GST-RIPK1 (1375, signalchem) enzyme to evaluate the enzyme inhibitory activity in the following manner. The composition of the reaction buffer used herein was as follows: 40 mM Tris-Hcl pH 7.4, 20 mM MgCl2, 0.5 mg/ml, BSA and 0.5 uM DTT. All the test materials were reacted in the reaction buffer. After reacting human GST-RIPK1 (1375, 10 ng), purified ATP (50 uM) and a specific substrate solution at 25° C. for 4 hours, the enzyme activity was confirmed using an in vitro ADP-Glo™ kinase assay (promega). Luminoscence was measured by reacting the enzyme activity reaction solution, ADP-Glo reaction solution, and enzyme activity detection solution at the ratio of 2:2:1. The degree of enzyme activity inhibition according to the treatment concentration of each compound was calculated based on the fluorescence of the enzyme activity of the solvent control not treated with the compound. At this time, the concentration of each compound inhibiting 50% of the enzyme activity was determined as IC50 (nM). IC50 of each compound was determined with three data sets and calculated using Prism (version 7.01, GraphPad) software.

[1] = tested on: human Jurkat T cells deficient in FADD; experiment: Cell protection effect under apoptosis-inducing condition (TNF-α); type: cell-based; details: 40 ng of TNF-α, 50 hours, CellTiter-Glo, read-out: I2.I Cell EC50
Description: The cell protection effect of the compounds according to the present invention under the condition of inducing apoptosis by TNF-α was confirmed by […]. An apoptosis inducing factor such as TNF-α was treated to induce apoptosis of human Jurkat T cells deficient in FADD, to which the example compound was treated, and the cell protection effect was confirmed through the following analysis. Jurkat T cells deficient in FADD were cultured using RPMI medium (Hyclone) containing 10% FBS. When performing the test, the cells were seeded in a 96-well plate containing a medium suitable for the cell line at the density of 10,000 cells/well, and cultured in a 37° C. 5% CO2 incubator for 24 hours. Then, each well was treated with 40 ng of TNF-α, and the compounds prepared in the above examples were each treated with a 3-fold concentration gradient with 1 μM as the highest concentration. As the solvent control, dimethyl sulfoxide (DMSO) was treated at the concentration of 0.05% (v/v), which was the same concentration as that used for the compound treatment. Then, the cells were cultured for 50 hours. To confirm the degree of viability of the cells, a mixture provided in CellTiter-Gloe Luminescent Cell Viability Assay Kit (Promega) was added to the culture medium of the cells, followed by further culture at 37° C. for 30 minutes. Then, luminescence fluorescence was measured. The degree of inhibition of apoptosis induction according to the treatment concentration of each compound was calculated based on the fluorescence of the solvent control cells not treated with the compound. At this time, the concentration of each compound inhibiting 50% was determined as EC50 (μM). EC50 of each compound was calculated using Prism (version 7.01, GraphPad) software.

Row | SMILES | IC50 (human GST-RIPK1) | EC50 [1]
1 | Cc1ccc(NC(=O)N2N=CCC2c2ccc(Cl)cc2)cc1C#Cc1cnc2cccnn12 (stereo not shown) [Example 15, 5-(4-chlorophenyl)-N-(3-(imidazo[1,2-b]pyridazin-3-ylethynyl)-4-methylphenyl)-4,5-dihydro-1H-pyrazole-1-carboxamide 2,2,2-trifluoroacetate] | 4.3 nM | 0.1 nM
2 | O=C(Nc1cccc(C#Cc2cnc3ccccn23)c1)N1N=CCC1c1ccccc1 (stereo not shown) [Example 55, N-(3-(imidazo[1,2-a]pyridin-3-ylethynyl)phenyl)-5-phenyl-4,5-dihydro-1H-pyrazole-1-carboxamide] | 13.4 nM | 1.6 nM
3 | O=C(Nc1cccc(C#Cc2cnc3cccnn23)c1)N1N=CC[C@H]1c1ccc(F)cc1 [Example 32, (S)-5-(4-fluorophenyl)-N-(3-(imidazo[1,2-b]pyridazin-3-ylethynyl)phenyl)-4,5-dihydro-1H-pyrazole-1-carboxamide 2,2,2-trifluoroacetate] | 4.83 nM | 0.63 nM
4 | Cc1ccc(NC(=O)N2N=CCC2c2ccc(F)cc2)cc1C#Cc1cnc2cccnn12 (stereo not shown) [Example 11, 5-(4-fluorophenyl)-N-(3-(imidazo[1,2-b]pyridazin-3-ylethynyl)-4-methylphenyl)-4,5-dihydro-1H-pyrazole-1-carboxamide 2,2,2-trifluoroacetate] | 47.4 nM | 0.35 nM
5 | O=C(Nc1cccn2c(C#Cc3cccc(NC(=O)N4N=CCC4c4ccccc4)c3)cnc12)C1CCC1 (stereo not shown) [Example 63, N-(3-((8-(cyclobutanecarboxamido)imidazo[1,2-a]pyridin-3-yl)ethynyl)phenyl)-5-phenyl-4,5-dihydro-1H-pyrazole-1-carboxamide 2,2,2-trifluoroacetate] | 39.6 nM | 0.9 nM
6 | Cc1ccc(NC(=O)N2N=CC[C@@H]2c2ccc(F)cc2)cc1C#Cc1cnc2cccnn12 [Example 13, (R)-5-(4-fluorophenyl)-N-(3-(imidazo[1,2-b]pyridazin-3-ylethynyl)-4-methylphenyl)-4,5-dihydro-1H-pyrazole-1-carboxamide 2,2,2-trifluoroacetate] | 503 nM | 321 nM
7 | O=C(Nc1ccnc(C#Cc2cnc3cccnn23)c1)N1N=CC[C@@H]1c1ccccc1 [Example 50, (R)—N-(2-(imidazo[1,2-b]pyridazin-3-ylethynyl)pyridin-4-yl)-5-phenyl-4,5-dihydro-1H-pyrazole-1-carboxamide 2,2,2-trifluoroacetate] | > 1000 nM | 197 nM
8 | O=C(Nc1cccc(C#Cc2cnc3cccnn23)c1)N1N=CCC1c1cccnc1 (stereo not shown) [Example 36, N-(3-(imidazo[1,2-b]pyridazin-3-ylethynyl)phenyl)-5-(pyridin-3-yl)-4,5-dihydro-1H-pyrazole-1-carboxamide 2,2,2-trifluoroacetate] | 2.98 nM | 12 nM
9 | O=C(Nc1cccc(C#Cc2cnc3ncccn23)c1)N1N=CCC1c1ccccc1 (stereo not shown) [Example 58, N-(3-(imidazo[1,2-a]pyrimidin-3-ylethynyl)phenyl)-5-phenyl-4,5-dihydro-1H-pyrazole-1-carboxamide] | 15 nM | 3.6 nM
10 | O=C(Nc1cccc(C#Cc2cnc3cccnn23)c1)N1N=CCC1c1ccc(C(F)(F)F)cc1 (stereo not shown) [Example 26, N-(3-(imidazo[1,2-b]pyridazin-3-ylethynyl)phenyl)-5-(4-(trifluoromethyl)phenyl)-4,5-dihydro-1H-pyrazole-1-carboxamide 2,2,2-trifluoroacetate] | 6.9 nM | 201 nM
11 | Cn1ccc(Nc2cccn3c(C#Cc4cccc(NC(=O)N5N=CCC5c5ccccc5)c4)cnc23)n1 (stereo not shown) [Example 68, N-(3-((8-((1-methyl-1H-pyrazol-3-yl)amino)imidazo[1,2-a]pyridin-3-yl)ethynyl)phenyl)-5-phenyl-4,5-dihydro-1H-pyrazole-1-carboxamide 2,2,2-trifluoroacetate] | 38.6 nM | 0.12 nM
12 | O=C(Nc1cccc(C#Cc2cnc3cccnn23)c1)N1N=CCC1c1cc2ccccc2cn1 (stereo not shown) [Example 41, N-(3-(imidazo[1,2-b]pyridazin-3-ylethynyl)phenyl)-5-(isoquinolin-3-yl)-4,5-dihydro-1H-pyrazole-1-carboxamide] | 33 nM | 64.6 nM
13 | O=C(Nc1cccc(C#Cc2cnc3cccnn23)c1)N1N=CC[C@@H]1c1ccc(F)cc1 [Example 33, (R)-5-(4-fluorophenyl)-N-(3-(imidazo[1,2-b]pyridazin-3-ylethynyl)phenyl)-4,5-dihydro-1H-pyrazole-1-carboxamide 2,2,2-trifluoroacetate] | > 1000 nM | 32 nM
14 | Cc1ccc(C(=O)N2N=CCC2c2ccccc2)cc1C#Cc1cnc2cccnn12 (stereo not shown) [Example 54, (3-(imidazo[1,2-b]pyridazin-3-ylethynyl)-4-methylphenyl)(5-phenyl-4,5-dihydro-1H-pyrazol-1-yl)methanone 2,2,2-trifluoroacetate] | 32.6 nM | > 1000 nM
15 | O=C(Nc1cccc(C#Cc2cnc3cccnn23)c1)N1N=CC[C@H]1c1cccc(F)c1 [Example 29, (S)-5-(3-fluorophenyl)-N-(3-(imidazo[1,2-b]pyridazin-3-ylethynyl)phenyl)-4,5-dihydro-1H-pyrazole-1-carboxamide 2,2,2-trifluoroacetate] | 5.83 nM | 0.3 nM
16 | Cc1ccc(NC(=O)N2N=CC[C@@H]2c2cc(F)cc(F)c2)cc1C#Cc1cnc2cccnn12 [Example 6, (R)-5-(3,5-difluorophenyl)-N-(3-(imidazo[1,2-b]pyridazin-3-ylethynyl)-4-methylphenyl)-4,5-dihydro-1H-pyrazole-1-carboxamide 2,2,2-trifluoroacetate] | > 1000 nM | 249 nM
17 | O=C(Nc1ccnc(C#Cc2cnc3cccnn23)c1)N1N=CC[C@H]1c1ccccc1 [Example 49, (S)—N-(2-(imidazo[1,2-b]pyridazin-3-ylethynyl)pyridin-4-yl)-5-phenyl-4,5-dihydro-1H-pyrazole-1-carboxamide 2,2,2-trifluoroacetate] | 1.9 nM | 0.3 nM
18 | O=C(Nc1cccc(C#Cc2cnc3cnccn23)c1)N1N=CCC1c1ccccc1 (stereo not shown) [Example 57, N-(3-(imidazo[1,2-a]pyrazin-3-ylethynyl)phenyl)-5-phenyl-4,5-dihydro-1H-pyrazole-1-carboxamide] | 23.8 nM | 0.3 nM
19 | O=C(Nc1cccc(C#Cc2cnc3cccnn23)c1)N1N=CCC1c1ccc(F)cc1 (stereo not shown) [Example 31, 5-(4-fluorophenyl)-N-(3-(imidazo[1,2-b]pyridazin-3-ylethynyl)phenyl)-4,5-dihydro-1H-pyrazole-1-carboxamide 2,2,2-trifluoroacetate] | 10.2 nM | 1.43 nM
20 | O=C(Nc1cccc(C#Cc2cnc3cccnn23)c1)N1N=CCC1c1ccc2ccccc2c1 (stereo not shown) [Example 40, N-(3-(imidazo[1,2-b]pyridazin-3-ylethynyl)phenyl)-5-(naphthalen-2-yl)-4,5-dihydro-1H-pyrazole-1-carboxamide] | 19 nM | 12.4 nM
21 | Cc1ccc(NC(=O)N2N=CC[C@@H]2c2cccc(F)c2)cc1C#Cc1cnc2cccnn12 [Example 10, (R)-5-(3-fluorophenyl)-N-(3-(imidazo[1,2-b]pyridazin-3-ylethynyl)-4-methylphenyl)-4,5-dihydro-1H-pyrazole-1-carboxamide 2,2,2-trifluoroacetate] | 801 nM | 326 nM
22 | Cc1ccc(NC(=O)N2N=CCC2c2ccccc2)cc1C#Cc1cnc2cccnn12 (stereo not shown) [Example 1, N-(3-(imidazo[1,2-b]pyridazin-3-ylethynyl)-4-methylphenyl)-5-phenyl-4,5-dihydro-1H-pyrazole-1-carboxamide 2,2,2-trifluoroacetate] |  | 0.17 nM
